This is an account of results in US4764591A, “Des-19-leucine, 20-glutamine, 21-threonine, 22-tyrosine-calcitonin” (Rorer Pharmaceutical Corporation, priority 1987, dated 1988).

Positions of bridges follow the written chain, without caps; N, C: chain ends. Residues, ends and D or L forms follow the SMILES beside them.

Assay [1] deals with serum calcium concentration.
Protocol: Biological Assay of Calcitonin Analogs in Vivo
Rats were divided into four groups of seven animals, and each group was assigned at random to a dose of standard or test solution. Low and high doses were chosen from the linear portion of the dose-response curve. For the salmon calcitonin standard, the values were 0.7 and 2.1 ng. peptide/100 g. body weight (BW). This dose approximates 3 and 9 MU/100 g. BW. Peptides were given by subcutaneous injection (0.2 ml/100 g. BW) and blood was withdrawn 1 hour later for serum calcium determination. Sera are processed and analyzed within two hours of collection. Results were analyzed within two hours of collection.
The conditions of assay [2]: literature values; cited from earlier work.

Turning to `CC(C)C[C@H](NC(=O)[C@H](CCCCN)NC(=O)CNC(=O)[C@H](CC(C)C)NC(=O)[C@@H](NC(=O)[C@@H]1CSSC[C@H](N)C(=O)N[C@@H](CO)C(=O)N[C@@H](CC(N)=O)C(=O)N[C@@H](CC(C)C)C(=O)N[C@@H](CO)C(=O)N[C@@H]([C@@H](C)O)C(=O)N1)C(C)C)C(=O)N[C@@H](CO)C(=O)N[C@@H](CCC(N)=O)C(=O)N[C@@H](CCC(=O)O)C(=O)N[C@@H](CC(C)C)C(=O)N[C@@H](Cc1c[nH]cn1)C(=O)N[C@@H](CCCCN)C(=O)N1CCC[C@H]1C(=O)N[C@@H](CCCNC(=N)N)C(=O)N[C@H](C(=O)N[C@@H](CC(N)=O)C(=O)N[C@H](C(=O)NCC(=O)N[C@@H](CO)C(=O)NCC(=O)N[C@H](C(=O)N1CCC[C@H]1C(N)=O)[C@@H](C)O)[C@@H](C)O)[C@@H](C)O` [des-Leu^19, Gln^20, Thr^21, Tyr^22 -SCT, des-19-leucine, 20-glutamine, 21-threonine, 22-tyrosine-salmon calcitonin] (H-CSNLSTCVLGKLSQELHKPRTNTGSGTP-NH2; disulfide 1-7), the biological potency in assay [1] (rat, in vivo, sc) amounted to 6250 IU/mg.
With `CC(C)C[C@H](NC(=O)[C@H](CCCCN)NC(=O)CNC(=O)[C@H](CC(C)C)NC(=O)[C@@H](NC(=O)[C@@H]1CSSC[C@H](N)C(=O)N[C@@H](CO)C(=O)N[C@@H](CC(N)=O)C(=O)N[C@@H](CC(C)C)C(=O)N[C@@H](CO)C(=O)N[C@@H]([C@@H](C)O)C(=O)N1)C(C)C)C(=O)N[C@@H](CO)C(=O)N[C@@H](CCC(N)=O)C(=O)N[C@@H](CCC(=O)O)C(=O)N[C@@H](CC(C)C)C(=O)N[C@@H](Cc1c[nH]cn1)C(=O)N[C@@H](CCCCN)C(=O)N[C@@H](CC(C)C)C(=O)N[C@@H](CCC(N)=O)C(=O)N[C@H](C(=O)N[C@@H](Cc1ccc(O)cc1)C(=O)N1CCC[C@H]1C(=O)N[C@@H](CCCNC(=N)N)C(=O)N[C@H](C(=O)N[C@@H](CC(N)=O)C(=O)N[C@H](C(=O)NCC(=O)N[C@@H](CO)C(=O)NCC(=O)N[C@H](C(=O)N1CCC[C@H]1C(N)=O)[C@@H](C)O)[C@@H](C)O)[C@@H](C)O)[C@@H](C)O` [standard salmon calcitonin, salmon calcitonin], in assay [1] (standard salmon calcitonin used in the assay, independently determined), the “potency content of the standard, independently determined” value is “greater than 4,000 IU/mg”.
Consider “(1,7-alpha-L-amino-suberic acid) eel calcitonin”, for which the hypocalcemic potency entry in assay [2] is on record as “about 3400 IU/mg”.
As to “eel calcitonin [synthetic eel calcitonin]”, the hypocalcemic potency entry in assay [2] is given as “around 4300 IU/mg”.
